pIC50: −log10 of the molar value. Read-outs that look alike come from different tables or passages of the source.
Legend:
[1] = target: T1, human MMP-9 (gelatinase B) (Homo sapiens, UniProt P14780); assay: Inhibition activity against human MMP-9 (gelatinase B), fluorescent peptide substrate; assay type: biochemical
T1 construct: endogenous in cells; host or cells: HT1080 human fibrosarcoma cells (ATCC CCL-121), PMA-stimulated; enzyme purified from the culture supernatant
Summary of the method: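 MMP-9 purified from PMA-stimulated (10 ng/ml) HT1080 supernatant, or commercial enzyme (0.0125-0.025 unit/ml or 0.2 μg/ml final), incubated with compound and 10 μM final Mca-Pro-Leu-Gly-Leu-Dpa-Ala-Arg-NH2 fluorescent substrate at 37 °C for 3 h in the dark. Precursor enzyme activated with APMA.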

[2] = compounds of the formula (I), 1st measurement, read-out: MMP-9 inhibition activities IC50, 1st
[3] = compounds of the formula (I), 2nd measurement, read-out: MMP-9 inhibition activities IC50, 2nd
[4] = compounds of the formula (I), average of 1st and 2nd (or single measurement), read-out: MMP-9 inhibition activities IC50, Average
[5] = intermediates, compounds of the formula (IV), 1st measurement, read-out: MMP-9 inhibition activities IC50, 1st
[6] = intermediates, compounds of the formula (IV), 2nd measurement, read-out: MMP-9 inhibition activities IC50, 2nd
[7] = intermediates, compounds of the formula (IV), average of 1st and 2nd (or single measurement), read-out: MMP-9 inhibition activities IC50, Average

T1 sequence (P14780 107-707 limits assumed): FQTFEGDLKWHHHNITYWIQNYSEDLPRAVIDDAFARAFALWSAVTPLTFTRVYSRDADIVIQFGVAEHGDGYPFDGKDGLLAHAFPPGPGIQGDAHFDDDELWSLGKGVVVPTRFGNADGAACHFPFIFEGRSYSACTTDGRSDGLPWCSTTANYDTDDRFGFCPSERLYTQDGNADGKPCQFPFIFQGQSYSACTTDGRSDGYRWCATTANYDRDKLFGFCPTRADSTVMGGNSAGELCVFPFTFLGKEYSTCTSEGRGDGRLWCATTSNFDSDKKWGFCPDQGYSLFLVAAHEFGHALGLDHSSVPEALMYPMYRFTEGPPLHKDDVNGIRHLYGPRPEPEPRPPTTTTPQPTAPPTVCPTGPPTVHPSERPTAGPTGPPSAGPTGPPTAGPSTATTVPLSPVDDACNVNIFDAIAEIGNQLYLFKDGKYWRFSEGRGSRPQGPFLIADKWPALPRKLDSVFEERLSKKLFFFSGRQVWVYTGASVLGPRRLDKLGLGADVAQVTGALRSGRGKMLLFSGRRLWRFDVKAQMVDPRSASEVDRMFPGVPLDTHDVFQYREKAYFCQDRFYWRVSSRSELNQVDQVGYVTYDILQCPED

SMILES | pIC50 [1, 2] | pIC50 [1, 3] | pIC50 [1, 4] | melting point | pIC50 [1, 5] | pIC50 [1, 6] | pIC50 [1, 7]
CNC(=C[N+](=O)[O-])NNc1cccc(Cl)c1 [Compound No. 9] | 4.37 | 4.36 | 4.37 | 191 °C (dec.) | – | – | –
CNC(=C[N+](=O)[O-])NNc1ccc(C(F)(F)F)cc1 [compound 40] | 4.87 | 4.54 | 4.68 | 190 °C | – | – | –
CNC(=C[N+](=O)[O-])NNc1cc(C(F)(F)F)cc(OCCCc2ccccn2)n1 [compound 118] | 4.49 | 4.45 | 4.47 | 169 °C (dec.) | – | – | –
COc1ccc(NC(=C[N+](=O)[O-])NN)cc1 [compound 49] | 4.81 | 4.74 | 4.77 | 195 °C (dec.) | – | – | –
CNC(=C[N+](=O)[O-])NNc1ccccn1 [compound 22] | 4.75 | 4.76 | 4.75 | 156 °C (dec.) | – | – | –
CNC(=C[N+](=O)[O-])NN=Cc1ccc([N+](=O)[O-])cc1 [compound 138] | 4.65 | 4.80 | 4.72 | 232 °C (dec.) | – | – | –
CNC(=C[N+](=O)[O-])NN=C(C)C [compound 25] | 4.66 | 4.52 | 4.59 | 136 °C | – | – | –
CNC(=C[N+](=O)[O-])NNc1c([N+](=O)[O-])c(C)nn1C [Compound No. 30] | 4.95 | 4.76 | 4.84 | 164 °C (dec.) | – | – | –
CNC(=C[N+](=O)[O-])NNc1ccc(OC(F)(F)F)cc1 [compound 95] | 4.57 | 4.57 | 4.57 | 176 to 177 °C (dec.) | – | – | –
CSC(=C[N+](=O)[O-])Nc1ccc2cn[nH]c2c1 [Intermediate 55] | – | – | – | 214 to 216 °C | 4.49 | 4.59 | 4.54
CNC(=C[N+](=O)[O-])NNc1cc(C(F)(F)F)ccn1 [compound 94] | 5.38 | 5.15 | 5.25 | 174 to 175 °C (dec.) | – | – | –
CSC(=C[N+](=O)[O-])Nc1ccc(F)cc1 [Intermediate 21] | – | – | – | 156 °C | 4.50 | 4.26 | 4.37
CSC(=C[N+](=O)[O-])NS(=O)(=O)c1ccc2ccccc2c1 [Intermediate 61] | – | – | – | 205 °C (dec.) | 5.09 | – | 5.09
NNC(=C[N+](=O)[O-])Nc1ccc(OC(F)(F)F)cc1 [Compound No. 61, N-(1-hydrazino-2-nitroethenyl)-4-trifluoromethoxyaniline] | 4.40 | 4.37 | 4.39 | 161 °C (dec.) | – | – | –
NNC(=C[N+](=O)[O-])NC1CC1 [compound 90] | 4.73 | 4.43 | 4.55 | 145 °C (dec.) | – | – | –
NNC(=C[N+](=O)[O-])NCc1ccc(C(F)(F)F)cc1 [compound 78] | 4.36 | 4.44 | 4.40 | 162 °C | – | – | –
CNC(=C[N+](=O)[O-])NNc1ccc(OC)cc1 [compound 17] | 4.36 | 4.54 | 4.44 | 168 °C (dec.) | – | – | –

SMILES | pIC50 [1, 2] | pIC50 [1, 3] | pIC50 [1, 4] | melting point | pIC50 [1, 5] | pIC50 [1, 6] | pIC50 [1, 7]
CNC(=C[N+](=O)[O-])NNc1nc(OC)nc(OC)n1 [compound 104] | 4.68 | 4.76 | 4.71 | 202 to 203 °C (dec.) | – | – | –
COc1ccc(NC(=C[N+](=O)[O-])NN)cn1 [compound 115] | 4.50 | 4.58 | 4.53 | 162 to 165 °C | – | – | –
CSC(=C[N+](=O)[O-])NC1CC1 [Intermediate 2] | – | – | – | 101.5 to 106 °C | 4.50 | 4.22 | 4.34
CNC(=C[N+](=O)[O-])NNc1cc(C(F)(F)F)cc(OCCN(C)C)n1 [Compound No. 100] | 4.41 | 4.59 | 4.49 | 125 to 126 °C (dec.) | – | – | –
CCOC(=O)c1ccc(NC(=C[N+](=O)[O-])SC)cc1 [Intermediate 50] | – | – | – | 116 to 123 °C | 4.47 | 4.60 | 4.53
CNC(=C[N+](=O)[O-])NNc1nc2ccccc2s1 [compound 132] | 5.92 | 5.62 | 5.74 | 158 °C (dec.) | – | – | –
CNC(=C[N+](=O)[O-])NNc1cc(C(F)(F)F)cc(OCc2ccccn2)n1 [compound 122] | 4.90 | 4.79 | 4.84 | 170 °C (dec.) | – | – | –
CNC(=C[N+](=O)[O-])NNc1cc(C(F)(F)F)cc(SC)n1 [compound 125] | 5.00 | 4.80 | 4.89 | 192 °C (dec.) | – | – | –
CNC(=C[N+](=O)[O-])NNc1ncccn1 [compound 45] | 4.47 | 4.58 | 4.52 | 182 to 183 °C (dec.) | – | – | –
CNC(=C[N+](=O)[O-])NNc1cc(C(F)(F)F)cc(OCC2CCCCO2)n1 (stereo not shown) [compound 128] | 4.72 | 4.99 | 4.89 | 93 to 95 °C | – | – | –
CNC(=C[N+](=O)[O-])NNc1ccccc1C [compound 14] | 4.32 | 4.37 | 4.35 | 171 °C (dec.) | – | – | –
NNC(=C[N+](=O)[O-])Nc1ccc2c(c1)OCO2 [compound 110] | 4.45 | 4.53 | 4.49 | 177 to 180 °C (dec.) | – | – | –
CNC(=C[N+](=O)[O-])NNc1cc(C(F)(F)F)cc(OCCc2ccccn2)n1 [compound 124] | 4.79 | 4.73 | 4.76 | 181 °C (dec.) | – | – | –
COc1ccccc1NC(=C[N+](=O)[O-])SC [Intermediate 25] | – | – | – | 128 to 130 °C | 4.41 | 4.45 | 4.43
NNC(=C[N+](=O)[O-])NN1CCOCC1 [compound 67] | 4.24 | 4.37 | 4.30 | 187 °C (dec.) | – | – | –
CNC(=C[N+](=O)[O-])NN=C(C)c1cccs1 [compound 32] | 4.57 | 4.62 | 4.60 | 165 °C (dec.) | – | – | –

Further lines, results first:

pIC50 [1, 2] | pIC50 [1, 3] | pIC50 [1, 4] | melting point | pIC50 [1, 5] | pIC50 [1, 6] | pIC50 [1, 7] | SMILES
5.25 | – | 5.25 | 216 °C (dec.) | – | – | – | CNC(=C[N+](=O)[O-])NNc1ncnc2c(C)csc12 [compound 170]
4.94 | – | 4.94 | 180 °C (dec.) | – | – | – | CNC(=C[N+](=O)[O-])NNc1cc(C(F)(F)F)cc(OCC(F)(F)F)n1 [compound 181]
5.20 | – | 5.20 | 171 to 174 °C | – | – | – | O=[N+]([O-])C=C(NNc1cc(C(F)(F)F)cc(Cl)n1)NS(=O)(=O)c1ccc(-c2ccccc2)cc1 [compound 162]
5.24 | 5.21 | 5.22 | 150 to 151 °C | – | – | – | O=[N+]([O-])C=C(NCCCCO)NNc1cc(C(F)(F)F)cc(Cl)n1 [compound 199]
5.22 | 5.02 | 5.11 | 164 °C (dec.) | – | – | – | O=[N+]([O-])C=C(NCC1CCCO1)NNc1cc(C(F)(F)F)cc(Cl)n1 (stereo not shown) [compound 169]
5.20 | – | 5.20 | 170 °C (dec.) | – | – | – | Cc1cc(C)c(S(C)(=O)=O)c(NNC(=C[N+](=O)[O-])NS(C)(=O)=O)n1 [compound 202]
5.22 | – | 5.22 | 114 to 119 °C (dec.) | – | – | – | CCS(=O)(=O)NC(=C[N+](=O)[O-])NNc1cc(C(F)(F)F)cc(Cl)n1 [compound 161]
5.21 | – | 5.21 | 166 °C (dec.) | – | – | – | CNC(=C[N+](=O)[O-])NNc1cc(C(F)(F)F)cc(OCCN2CCOCC2)n1 [compound 188]
4.95 | – | 4.95 | 167 °C (dec.) | – | – | – | CNC(=C[N+](=O)[O-])NNc1cc(C(F)(F)F)cc(OCCOC(C)C)n1 [compound 196]
4.85 | – | 4.85 | 180 °C | – | – | – | CNC(=C[N+](=O)[O-])NN=Cc1cccc(C(F)(F)F)c1 [compound 167]
4.65 | 4.66 | 4.65 | 180 °C (dec.) | – | – | – | CNC(=C[N+](=O)[O-])NN=Cc1ccc2c(c1)OCO2 [compound 140]
4.74 | 4.53 | 4.62 | 210 °C (dec.) | – | – | – | CNC(=C[N+](=O)[O-])NNc1ccnc2cc(Cl)ccc12 [compound 146]
5.49 | – | 5.49 | 30 to 33 °C | – | – | – | CC(=C(NNc1cc(C(F)(F)F)cc(Cl)n1)NS(C)(=O)=O)[N+](=O)[O-] [compound 165]
5.05 | – | 5.05 | 162 °C (dec.) | – | – | – | CNC(=C[N+](=O)[O-])NNc1cc(C(F)(F)F)cc(OCc2ccccc2Cl)n1 [compound 174]
4.46 | 4.40 | 4.43 | 235 °C (dec.) | – | – | – | CNC(=C[N+](=O)[O-])NNc1ccnc2cc(C(F)(F)F)ccc12 [compound 147]

Reference: patent US6596863B2, “Medical composition containing nitroetheneamine Derivative or salt there of as active constituent” (Ishihara Sangyo Kaisha, Ltd., priority 1998, dated 2003)
